Data as given in ChEMBL document CHEMBL5154916, “Multiparameter Optimization of Naphthyridine Derivatives as Selective α5-GABAA Receptor Negative Allosteric Modulators” (J Med Chem, 2022).

Tests used:
[1] = Metabolic stability in human hepatocyte assessed as intrinsic clearance measured per 10^6 cells; format: ADME, cell-based; conditions: hepatocytes, read-out: CLH
Cytochrome P450 2D6 = Cytochrome P450 2D6 (Homo sapiens, UniProt P10635); assay: Inhibition of CYP2D6 (unknown origin); format: ADME
[2] = biological target: T1, GABA-A receptor; alpha-1/beta-3/gamma-2 (Homo sapiens) (UniProt P14867+P18507+P28472); assay: Negative allosteric modulation activity at human recombinant alpha1beta3gamma2 GABAA receptor stably expressed in HEK293 cells assessed as modulation at alpha5 subunit by Patch clamp method; format: cell-based; conditions: filed as negative allosteric modulator
[3] = biological target: GABA-A receptor; alpha-5/beta-3/gamma-2 (Homo sapiens) (UniProt P18507+P28472+P31644); assay: Negative allosteric modulation activity at human recombinant alpha5beta3gamma2 GABAA receptor stably expressed in HEK293 cells assessed as modulation at alpha5 subunit at 1 uM by Patch clamp method; format: cell-based; conditions: filed as negative allosteric modulator
[4] = biological target: T1, GABA-A receptor; alpha-1/beta-3/gamma-2 (Homo sapiens); assay: Negative allosteric modulation activity at human recombinant alpha1beta3gamma2 GABAA receptor stably expressed in HEK293 cells assessed as modulation at alpha1 subunit at 10 uM by Patch clamp method; format: cell-based; conditions: filed as negative allosteric modulator
[5] = biological target: Voltage-gated inwardly rectifying potassium channel KCNH2 (Homo sapiens, UniProt Q12809); assay: Inhibition of hERG expressed in CHO cells stably at -80 mV holding potential by automated patch clamp method; format: toxicity, cell-based
[6] = Metabolic stability in Wistar rat liver microsomes assessed as intrinsic clearance at 2.5 uM; format: ADME, Microsome; conditions: read-out: CLH
[7] = Ratio of drug level in brain to plasma in Wistar rat at 3 mg/kg, po measured at 1.5 hr post dose; format: ADME, organism-based; conditions: brain and plasma, read-out: BPR
[8] = Passive permeability in human Caco-2 cells assessed as permeability damage ratio at 10 uM by HPLC-UV analysis; format: ADME, cell-based; conditions: caco-2, 10 µM
[9] = Clearance in Wistar rat plasma at 1 mg/kg, iv by HPLC-MS/MS analysis; format: ADME, organism-based
[10] = Volume of distribution in Wistar rat plasma at 1 mg/kg, iv by HPLC-MS/MS analysis; format: ADME, organism-based
[11] = Tmax in Wistar rat total plasma at 1 mg/kg, po by HPLC-MS/MS analysis; format: ADME, organism-based
[12] = AUC (0 to infinity) in Wistar rat total plasma at 1 mg/kg, po by HPLC-MS/MS analysis; format: ADME, organism-based; parameters: time infinity, dose 1 mg/kg, route po
Homo sapiens = organism: Homo sapiens; assay: Selectivity ratio of Ki for human alpha1GABAA receptor to Ki for alpha2 GABAA receptor
[13] = Metabolic stability in Wistar rat hepatocyte assessed as intrinsic clearance measured per 10^6 cells; format: ADME, cell-based; conditions: hepatocytes, read-out: CLH
[14] = Metabolic stability in dog hepatocyte assessed as intrinsic clearance measured per 10^6 cells; format: ADME, cell-based, Canis lupus familiaris; conditions: hepatocytes, read-out: CLH
[15] = Plasma protein binding in human; format: ADME, cell-free; conditions: read-out: PPB (converted)
[16] = Plasma protein binding in rat; format: ADME, cell-free; conditions: read-out: PPB (converted)
Cytochrome P450 1A2 = biological target: T2, Cytochrome P450 1A2 (Homo sapiens, UniProt P05177); assay: Inhibition of CYP1A2 (unknown origin); format: ADME
T2 sequence (P05177 whole entry): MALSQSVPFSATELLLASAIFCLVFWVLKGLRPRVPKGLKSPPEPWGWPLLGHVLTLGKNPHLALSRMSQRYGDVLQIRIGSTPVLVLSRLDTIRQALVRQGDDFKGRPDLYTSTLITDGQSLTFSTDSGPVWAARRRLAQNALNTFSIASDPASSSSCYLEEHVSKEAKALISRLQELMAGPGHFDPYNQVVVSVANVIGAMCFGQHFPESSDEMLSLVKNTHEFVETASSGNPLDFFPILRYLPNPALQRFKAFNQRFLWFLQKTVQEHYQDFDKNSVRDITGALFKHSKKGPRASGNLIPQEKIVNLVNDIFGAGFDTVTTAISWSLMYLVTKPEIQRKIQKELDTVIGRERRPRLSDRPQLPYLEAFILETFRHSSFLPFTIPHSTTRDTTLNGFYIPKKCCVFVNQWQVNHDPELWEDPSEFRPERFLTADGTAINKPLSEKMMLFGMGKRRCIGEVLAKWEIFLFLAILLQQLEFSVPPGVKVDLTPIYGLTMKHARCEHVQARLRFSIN

Cytochrome P450 3A4 = Cytochrome P450 3A4 (Homo sapiens, UniProt P08684); assay: Inhibition of CYP3A4 (unknown origin); format: ADME
Cytochrome P450 2B6 = biological target: T3, Cytochrome P450 2B6 (Homo sapiens, UniProt P20813); assay: Inhibition of CYP2B6 (unknown origin); format: ADME
T3 sequence (P20813 whole entry): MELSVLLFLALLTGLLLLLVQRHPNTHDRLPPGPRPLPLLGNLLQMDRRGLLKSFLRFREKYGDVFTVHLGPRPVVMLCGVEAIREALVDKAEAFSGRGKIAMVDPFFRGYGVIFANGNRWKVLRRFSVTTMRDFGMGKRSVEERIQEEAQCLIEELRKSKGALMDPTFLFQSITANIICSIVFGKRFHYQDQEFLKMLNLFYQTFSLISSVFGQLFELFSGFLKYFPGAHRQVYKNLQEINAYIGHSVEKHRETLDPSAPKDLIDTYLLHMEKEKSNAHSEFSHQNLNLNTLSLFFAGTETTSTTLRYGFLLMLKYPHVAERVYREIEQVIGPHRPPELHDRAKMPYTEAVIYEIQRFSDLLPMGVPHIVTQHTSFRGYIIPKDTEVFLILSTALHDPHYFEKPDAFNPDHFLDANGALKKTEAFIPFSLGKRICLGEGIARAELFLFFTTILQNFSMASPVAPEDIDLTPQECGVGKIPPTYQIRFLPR

Cytochrome P450 2C19 = Cytochrome P450 2C19 (Homo sapiens, UniProt P33261); assay: Inhibition of CYP2C19 (unknown origin); format: ADME
[17] = Ratio of drug level in brain to plasma in Wistar rat at 1 mg/kg, po or 1 mg/kg, iv by HPLC-MS/MS analysis; format: ADME, organism-based; conditions: brain and plasma, read-out: BPR
[18] = Bioavailability in Wistar rat at 1 mg/kg,po or 1 mg/kg, iv by HPLC-MS/MS analysis; format: ADME, organism-based; conditions: in vivo
[19] = Bioavailability in male dog at 10 mg/kg, po or 3 mg/kg, iv by HPLC-MS/MS analysis; format: ADME, organism-based, Canis lupus familiaris; conditions: in vivo
[20] = Bioavailability in female dog at 10 mg/kg, po or 3 mg/kg, iv by HPLC-MS/MS analysis; format: ADME, organism-based, Canis lupus familiaris; conditions: in vivo
Rattus norvegicus = assay: Pro-cognitive activity in po dosed neonatal PCP-impaired social recognition Wistar rat model assessed as time spent social recognition administered 30 min before acquisition by social recognition test; format: functional; conditions: 0.5 h, read-out: MED
[21] = […] in po dosed Wister rat assessed as motor impairment by assessing NOAEL by spontaneous motor activity test; format: organism-based; conditions: Wistar, in vivo
[22] = […] in po dosed Wistar rat assessed as NED by Irwin test; format: organism-based; conditions: in vivo, read-out: ED
[23] = Cardiovascular toxicity in po dosed guinea pig assessed as NOAEL; format: organism-based, Cavia porcellus; conditions: in vivo
[24] = Metabolic stability in guinea pig hepatocyte assessed as intrinsic clearance measured per 10^6 cells; format: ADME, cell-based, Cavia porcellus; conditions: hepatocytes, read-out: CLH
[25] = Free plasma concentration in subchronic PCP-induced cognitive impairment associated schizophrenia Wistar rat model at 10 mg/kg, po measured at 1.5 hr post dose by HPLC-MS/MS analysis; format: ADME, organism-based; conditions: in vivo

Cytochrome P450 3A4, sequence (P08684 whole entry): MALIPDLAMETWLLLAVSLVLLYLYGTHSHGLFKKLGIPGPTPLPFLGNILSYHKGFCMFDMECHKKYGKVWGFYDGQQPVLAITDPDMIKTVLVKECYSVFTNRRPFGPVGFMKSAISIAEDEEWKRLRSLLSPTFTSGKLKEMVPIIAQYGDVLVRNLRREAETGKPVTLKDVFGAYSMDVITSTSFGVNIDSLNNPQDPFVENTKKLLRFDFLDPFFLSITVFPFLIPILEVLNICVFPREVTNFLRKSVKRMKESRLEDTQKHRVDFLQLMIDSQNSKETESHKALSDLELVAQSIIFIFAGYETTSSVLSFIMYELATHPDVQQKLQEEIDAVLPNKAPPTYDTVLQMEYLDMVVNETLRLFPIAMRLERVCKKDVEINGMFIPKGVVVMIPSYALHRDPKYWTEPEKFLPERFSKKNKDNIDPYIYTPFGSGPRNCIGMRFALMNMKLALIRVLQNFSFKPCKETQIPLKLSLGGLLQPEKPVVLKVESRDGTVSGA
Cytochrome P450 2D6, sequence (P10635 whole entry): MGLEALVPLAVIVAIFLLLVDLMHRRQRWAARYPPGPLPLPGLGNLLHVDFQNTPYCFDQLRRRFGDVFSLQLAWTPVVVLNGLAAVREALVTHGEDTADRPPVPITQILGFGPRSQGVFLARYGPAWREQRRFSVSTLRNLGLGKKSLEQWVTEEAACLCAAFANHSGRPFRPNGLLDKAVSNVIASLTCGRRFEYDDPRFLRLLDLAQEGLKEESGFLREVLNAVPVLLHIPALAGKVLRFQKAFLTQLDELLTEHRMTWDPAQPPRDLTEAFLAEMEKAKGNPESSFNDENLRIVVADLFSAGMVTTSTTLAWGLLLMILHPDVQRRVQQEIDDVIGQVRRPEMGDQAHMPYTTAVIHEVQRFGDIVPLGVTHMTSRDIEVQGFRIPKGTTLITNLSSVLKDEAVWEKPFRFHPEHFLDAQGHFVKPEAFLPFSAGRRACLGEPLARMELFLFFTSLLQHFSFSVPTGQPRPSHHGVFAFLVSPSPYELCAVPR
Voltage-gated inwardly rectifying potassium channel KCNH2, sequence (Q12809 whole entry): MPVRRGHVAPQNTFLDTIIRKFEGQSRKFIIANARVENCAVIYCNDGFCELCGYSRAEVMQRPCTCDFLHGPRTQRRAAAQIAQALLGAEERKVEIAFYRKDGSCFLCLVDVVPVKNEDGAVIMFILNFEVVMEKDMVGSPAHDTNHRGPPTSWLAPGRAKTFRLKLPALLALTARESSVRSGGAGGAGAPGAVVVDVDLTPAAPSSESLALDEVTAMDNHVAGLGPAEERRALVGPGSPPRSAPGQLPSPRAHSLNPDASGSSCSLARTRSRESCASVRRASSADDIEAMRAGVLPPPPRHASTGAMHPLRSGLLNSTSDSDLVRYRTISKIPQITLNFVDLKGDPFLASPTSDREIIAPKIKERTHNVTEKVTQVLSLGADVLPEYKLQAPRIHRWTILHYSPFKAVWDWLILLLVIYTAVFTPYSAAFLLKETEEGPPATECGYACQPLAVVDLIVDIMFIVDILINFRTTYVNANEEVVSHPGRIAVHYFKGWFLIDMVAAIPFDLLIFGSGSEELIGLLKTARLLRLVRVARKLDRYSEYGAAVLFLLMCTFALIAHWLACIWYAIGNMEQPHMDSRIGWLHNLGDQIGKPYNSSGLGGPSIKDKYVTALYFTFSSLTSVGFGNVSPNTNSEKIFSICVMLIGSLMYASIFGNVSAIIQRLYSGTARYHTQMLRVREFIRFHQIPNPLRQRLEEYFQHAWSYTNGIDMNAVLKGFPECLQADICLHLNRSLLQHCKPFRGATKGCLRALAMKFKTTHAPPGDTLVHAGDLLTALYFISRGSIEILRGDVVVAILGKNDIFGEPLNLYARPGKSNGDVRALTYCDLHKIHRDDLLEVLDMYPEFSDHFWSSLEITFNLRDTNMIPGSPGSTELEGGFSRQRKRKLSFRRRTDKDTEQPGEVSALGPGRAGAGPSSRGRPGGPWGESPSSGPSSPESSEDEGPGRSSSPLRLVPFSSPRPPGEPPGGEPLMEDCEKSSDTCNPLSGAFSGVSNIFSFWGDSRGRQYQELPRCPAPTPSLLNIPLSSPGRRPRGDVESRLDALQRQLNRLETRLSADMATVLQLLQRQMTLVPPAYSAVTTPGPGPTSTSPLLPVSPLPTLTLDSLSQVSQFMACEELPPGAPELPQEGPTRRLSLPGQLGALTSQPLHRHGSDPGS
Cytochrome P450 2C19, sequence (P33261 whole entry): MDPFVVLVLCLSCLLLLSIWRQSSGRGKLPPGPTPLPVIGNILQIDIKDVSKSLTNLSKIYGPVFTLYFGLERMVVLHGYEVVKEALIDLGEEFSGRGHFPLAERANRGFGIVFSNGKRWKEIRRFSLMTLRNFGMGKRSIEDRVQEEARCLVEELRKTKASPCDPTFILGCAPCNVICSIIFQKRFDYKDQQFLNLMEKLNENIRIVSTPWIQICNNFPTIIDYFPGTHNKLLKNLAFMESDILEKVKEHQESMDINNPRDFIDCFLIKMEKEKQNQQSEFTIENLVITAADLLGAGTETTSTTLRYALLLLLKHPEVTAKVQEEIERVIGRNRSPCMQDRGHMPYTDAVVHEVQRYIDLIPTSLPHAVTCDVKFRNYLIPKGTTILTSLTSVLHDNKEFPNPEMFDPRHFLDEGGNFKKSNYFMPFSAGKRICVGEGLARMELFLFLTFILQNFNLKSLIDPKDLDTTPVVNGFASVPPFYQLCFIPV

`Cc1onc(-c2ccc(F)cc2)c1COc1ccc2c(n1)CCN(C(=O)CS(C)(=O)=O)C2` gave a hepatocyte CLint [1] of 3 µL/min/1e6 cells, an IC50 (Cytochrome P450 2D6) of over 50 µM and an Activity [2] of -41%. The Activity [3] was -24%, the Activity [4] was -2% and the IC50 [5] was 6.2 µM. The microsomal CLint at 2.5 µM [6] was 29 µL/min/mg, the Kp at 1.5 h [7] was 6.3 and the Ratio [8] was 29. It also gave a clearance [9] of 41.3 mL/min/kg, a Vd [10] of 1.9 L/kg and a Tmax [11] of 30 min. The AUC(0-inf) [12] was 146 ng·h/mL, the Selectivity ratio (Homo sapiens) was over 40 and the hepatocyte CLint [13] was 19 µL/min/1e6 cells. The hepatocyte CLint [14] was 2 µL/min/1e6 cells, the fraction unbound [15] was 0.014 and the fraction unbound [16] was 0.04. For the same molecule, the IC50 (Cytochrome P450 1A2) was over 50 µM, the IC50 (Cytochrome P450 3A4) was over 50 µM and the IC50 (Cytochrome P450 2B6) was 20.8 µM. For the same molecule, the IC50 (Cytochrome P450 2C19) was 14.6 µM, the Kp [17] was 0.54 and the bioavailability [18] was 35.8%. For the same molecule, the bioavailability [19] was 12.6%, the bioavailability [20] was 6.7% and the minimal effective dose (Rattus norvegicus) was 10 mg/kg. It also gave an NOAEL [21] of at least 100 mg/kg, an NOAEL [22] of at least 300 mg/kg and an NOAEL [23] of at least 100 mg/kg. For the same molecule, the hepatocyte CLint [24] was 4 µL/min/1e6 cells and the “Cp(f)” value [25] was 6.9 nM.
